Values of other authors in patent US20030215917A1, “Assay for evaluation of activity of compounds against HCV using a novel detection system in the HCV replicon” (priority 2002, published 2003).

What was measured:
HCV and HCV replicon = conditions: stated as known
[1] = test system: Hepatitis B virus (HBV), Hepatitis C virus (HCV), Yellow Fever virus, Dengue Virus, Japanese Encephalitis, West Nile virus and related flaviviruses
HCV replicon cells = conditions: at high concentration; stated as known

Row | Compound | inhibition of viral replication (HCV and HCV replicon) | activity against viruses [1] | inhibition of the replication of the virus (viral growth) [1] | toxicity to the host cells (host cells) | cytotoxicity effect (HCV replicon cells)
1 | interferon alpha | known to inhibit viral replication | – | – | – | –
2 | O=C1OCc2c1cc1ccc3c(c1c2-c1ccc2c(c1)OCO2)OCO3 [Helioxanthin] | – | high activity | potent inhibition | very low toxicity | known to have cytotoxicity effect at high concentration
